Series [1] can be described thus: Aqueous solubility by UV spectrophotometry (500 μM solutions in aqueous media from DMSO stock). The format is physicochemical. The conditions noted are these: for Aqueous solubility compared with Quercetin (II) / QC-12 (IV), in words: comparison drawn from Table-II; for solubility: kinetic from dmso stock, aqueous media, 500 μM solution prepared from DMSO stock, UV OD at λmax. The method, then:
The aqueous solubility of the novel Quercetin derivatives of formula (I) were determined and subsequently compared with QC 12. 500 μM solutions of the various novel Quercetin derivatives were prepared in aqueous media from DMSO stock solution. The samples were scanned in UV spectrophotometer at its λmax to obtain optical density (O.D) of the compound. Concentration against the OD value was obtained by calibration curve constructed by plotting the Optical density Vs concentration of calibration standards of the compounds.
Calibration standards were prepared by diluting the stock solution of the compound further in suitable solvents ensuring the overall compound solubility. Calibration standard of concentration 500 μM, 200 μM, 50 μM, 12.5 μM and 3.13 μM were prepared. These calibration standards were scanned in UV spectrophotometer at its highest wavelength (λmax) to obtain the optical density values (OD). A standard curve was constructed by plotting the Optical density Vs concentration.

Series [2] is described as follows: Plasma stability (half-life in plasma, 100 μM, 37° C., liquid chromatography). In kind it is in vitro ADME. The conditions noted are these: plasma spiked at 100 μM, incubated at 37° C. The method, then:
The Plasma stability of the novel Quercetin derivatives of formula (I) were evaluated by determining their half-life in plasma and subsequently compared with QC-12 (IV). Plasma samples of concentration 100 μM spiked with the compounds were incubated at 37° C. and at specified time point the samples were quenched using chilled acetonitrile. Samples were then analyzed using liquid chromatography to determine the concentration at respective time point. Half-life was calculated from the logarithmic curve drawn between time and concentration.

Series [3] concerns SKOV3 (Ovary) cancer cells. The series is described as follows: Colorimetric MTT conversion assay, SKOV3. The format is cell-based. The conditions noted are these: Homo sapiens, SK-OV-3, 72 h exposure, 10 μM to 100 μM. The method, then: (§1) The anticancer potential of the novel Quercetin derivatives of formula (I) were evaluated and subsequently compared with Quercetin (II). The anticancer potential was determined by the colorimetric MTT conversion assay of Mossman. Human cancer cells representing ovary (PA-1; SK-OV-3); prostate (DU 145); lung (A-549) and normal fibroblast (NIH-3T3) were separately seeded at density of 1000 cells/well into 96 well plates in 180 μl of culture medium with 10% fetal calf serum. After 24 h, cells were incubated with different concentrations of the novel Quercetin derivatives ranging from 10 μM to 100 μM with relevant controls at 37° C. in a CO2 incubator in triplicate wells. The exposure medium (Quercetin derivatives in culture medium) of all the cells was refreshed after every 24 h. Cells were incubated with the derivatives for total of 72 h. The assay was terminated by the addition of 20 μl, of MTT solution (5 mg/ml) in each well and percentage cytotoxicity was calculated as given below. The IC50 values were determined by nonlinear regression using Prism software v 4.01.
(§2) Percentage Cytotoxicity=100×[1−(X/R1)], where X=absorbance of treated sample at 540 nm
(In general: Tetrazolium dyes change colour on reduction, which living cells bring about.)

The test system of series [4] is PA-1 (Ovary) cancer cells. Nature of the series: Colorimetric MTT conversion assay, PA-1. The format is cell-based. The conditions noted are these: Homo sapiens, 72 h exposure, 10 μM to 100 μM. The method, then: as §1, §2
For series [5], the system named is DU 145 (Prostate) cancer cells. Nature of the series: Colorimetric MTT conversion assay, DU 145. In kind it is cell-based. The conditions noted are these: Homo sapiens, 72 h exposure, 10 μM to 100 μM. The method, then: as §1, §2
Series [6] has as its system NIH 3T3 (Normal) fibroblast. Nature of the series: Colorimetric MTT conversion assay, NIH 3T3. The format is cell-based. To be noted: Mus musculus, NIH3T3, 72 h exposure, 10 μM to 100 μM. The method, then:
as §1, §2

In series [7] the test system is different Cancer Cell Lines. The series is described as follows: Colorimetric MTT conversion assay, overall comparison over the cell line panel. The format is cell-based, Human. To be noted: comparison drawn from Table-IV. The method, then: as §1, §2
For series [8], the system named is A 549 (Lung) cancer cells. The series is described as follows: Colorimetric MTT conversion assay, A 549. The conditions noted are these: Homo sapiens, A549, 72 h exposure, 10 μM to 100 μM. In kind it is cell-based. The method, then:
as §1, §2

Values after ≈ are worked out from the molar mass of the structure shown.

A word on the solubility: it is how much of the substance goes into solution per volume. Lower therefore signals a poorly soluble substance. By half-life is commonly meant how long it takes for the measured level to halve. High values mean slow loss, low ones fast loss. Broadly, the IC50 is the concentration needed to halve the response being measured.

As for `CC(=O)OCOc1cc(-c2oc3cc(O)cc(O)c3c(=O)c2O)ccc1O` [Compound No. 8, (2-hydroxy-5-(3,5,7-trihydroxy-4-oxo-4H-chromen-2-yl)phenoxy)methyl acetate], the “Aqueous solubility compared with Quercetin (II) / QC-12 (IV), in words” value in series [1] is reported as “better solubility than Quercetin (II)”. In addition, the solubility in series [1] was found to be 16.5 µM. Also, the half-life at 100 μM in series [2] was less than 3 min. The IC50 was more than 100 µM in series [3], 19.4 µM in series [4], more than 100 µM in series [5] and more than 100 µM in series [6]. In series [7], the “Cytotoxic potential compared with Quercetin (II), in words” value is on record as “better cytotoxic potential than Quercetin (II)”.
`O=C(O)CNC(=O)Oc1cc(-c2oc3cc(O)cc(O)c3c(=O)c2O)ccc1O` [QC-12 (IV), reference compound]: the solubility in series [1] is more than 200 µM. Also, the half-life at 100 μM in series [2] was 43.9 min.
In the case of `CC(C)(C)C(=O)OCOc1cc(-c2oc3cc(O)cc(O)c3c(=O)c2O)ccc1O` [Compound No. 7, (2-hydroxy-5-(3,5,7-trihydroxy-4-oxo-4H-chromen-2-yl)phenoxy)methyl pivalate], the “Aqueous solubility compared with Quercetin (II) / QC-12 (IV), in words” value in series [1] is listed as “better solubility than Quercetin (II)”. The compound also registered a solubility in series [1] of 30.6 µM (≈ 12.7 µg/mL). Besides, the half-life at 100 μM in series [2] amounted to 6.24 min. Further, the IC50 in series [3] was more than 100 µM; in series [4], 20.9 µM; in series [5], 83.1 µM; in series [6], more than 100 µM. The “Cytotoxic potential compared with Quercetin (II), in words” value in series [7] was “better cytotoxic potential than Quercetin (II)”.
Turning to `CCCC(=O)OCOc1cc(-c2oc3cc(OCc4ccccc4)cc(O)c3c(=O)c2OCc2ccccc2)ccc1OCc1ccccc1` [Compound No. 13, (2-(Benzyloxy)-5-(3,7-bis(benzyloxy)-5-hydroxy-4-oxo-4H-chromen-2-yl)phenoxy)methyl butyrate], the solubility in series [1] is less than 3.13 µM. The half-inhibitory concentration (IC50) in series [3], in series [4], in series [5], in series [8] and in series [6] was more than 100 µM throughout.
`O=c1c(O)c(-c2ccc(O)c(O)c2)oc2cc(O)cc(O)c12` [Quercetin (II), 2-(3,4-Dihydroxyphenyl)-3,5,7-trihydroxy-4H-1-benzopyran-4-one, reference compound] registered a solubility in series [1] of 4.02 µM (≈ 1.22 µg/mL). The IC50 in series [3] is 88.4 µM; in series [4], 35.3 µM; in series [5], more than 100 µM; in series [8], 83.7 µM; in series [6] it was 68.7 µM.
As for `CC(C)(C)C(=O)OCOc1cc(-c2oc3cc(OCc4ccccc4)cc(O)c3c(=O)c2OCc2ccccc2)ccc1OCc1ccccc1` [Compound No. 1, (2-(Benzyloxy)-5-(3,7-bis(benzyloxy)-5-hydroxy-4-oxo-4H-chromen-2-yl)phenoxy)methyl pivalate], in series [1], the solubility was found to be 1.48 µM (≈ 1.02 µg/mL). The IC50 in series [3], in series [4], in series [5] and in series [6] was more than 100 µM each time.
In series [1], `CC(=O)OCOc1cc(-c2oc3cc(OCc4ccccc4)cc(O)c3c(=O)c2OCc2ccccc2)ccc1OCc1ccccc1` [Compound No. 2, (2-(Benzyloxy)-5-(3,7-bis(benzyloxy)-5-hydroxy-4-oxo-4H-chromen-2-yl)phenoxy)methyl acetate] returned a solubility of 0.591 µM. Moreover, the half-maximal inhibitory concentration (IC50) in series [3], in series [4], in series [5] and in series [6] was more than 100 µM in each case.
As to `CCCC(=O)OCOc1cc(-c2oc3cc(O)cc(O)c3c(=O)c2O)ccc1O` [Compound No. 14, (2-hydroxy-5-(3,5,7-trihydroxy-4-oxo-4H-chromen-2-yl)phenoxy)methyl butyrate], in series [1], the “Aqueous solubility compared with Quercetin (II) / QC-12 (IV), in words” value was “solubility comparable to QC-12 (IV)”. In addition, the concentration in solution in series [1] (solubility) was 199 µM (≈ 80.1 µg/mL). Moreover, in series [2], the half-life at 100 μM was less than 3 min. Moreover, the half-inhibitory concentration (IC50) in series [3] is 94.6 µM; in series [4] it was less than 10 µM; in series [5], more than 100 µM; in series [8], 61.9 µM; in series [6], more than 100 µM. For the same compound, the “Cytotoxic potential compared with Quercetin (II), in words” value in series [7] was “better cytotoxic potential than Quercetin (II)”.
